From patent US20240317718A1, “SUBSTITUTED HETEROCYCLIC COMPOUNDS” (BRISTOL-MYERS SQUIBB COMPANY, priority 2021, published 2024)

Tests used:
Caco-2 cells = conditions: human, Caco-2, 2 h, 3 μM, pH 7.4
[1] = system: IFNα-induced pSTAT5 (Tyk2-mediated signal transduction); experiment: IFNα-induced STAT phosphorylation in human whole blood; assay type: cell-based; conditions: 1 h incubation with compound, 1000 U/mL IFNα A/D for 15 min, CD3 positive population, read-out: Human Whole blood IFNa pSTAT5 IC50
Method: IFNα-Induced STAT Phosphorylation in Human Whole Blood
After an hour long incubation with compound, human whole blood (drawn with ACD-A as anticoagulant) was stimulated with 1000 U/mL recombinant human IFNα A/D (R&D Systems 11200-2) for 15 min. The stimulation was stopped by adding Fix/Lyse buffer (BD 558049). Cells were stained with a CD3 FITC antibody (BD 555916), washed, and permeabilized on ice using Perm III buffer (BD 558050). Cells were then stained with an Alexa-Fluor 647 pSTAT5 (pY694) antibody (BD 612599) for 60 min prior to analysis on the iQue Plus. The amount of pSTAT5 expression was quantitated by median fluorescence intensity after gating on the CD3 positive population.

in vitro = conditions: human, Caco-2, pH 7.4

[2H]C([2H])([2H])NC(=O)c1nnc(NC(=O)C2CC2)cc1Nc1cccc(-c2noc(COCC)n2)c1OC [Example 3, 6-cyclopropaneamido-4-({3-[5-(ethoxymethyl)-1,2,4-oxadiazol-3-yl]-2-methoxyphenyl}amino)-N-(^2H3)methylpyridazine-3-carboxamide]
CACO2 (A-B) (Caco-2 cells): 553 nm/s

[2H]C([2H])([2H])NC(=O)c1nnc(NC(=O)C2CC2)cc1Nc1cccc(-c2noc(CCOC)n2)c1OC [Example 4, 6-cyclopropaneamido-4-({2-methoxy-3-[5-(2-methoxyethyl)-1,2,4-oxadiazol-3-yl]phenyl}amino)-N-(^2H3)methylpyridazine-3-carboxamide]
CACO2 (A-B) (Caco-2 cells): 591 nm/s

[2H]C([2H])([2H])NC(=O)c1nnc(NC(=O)C2CC2)cc1Nc1cccc(-c2cc(C)ncn2)c1OC [Example 8, 6-cyclopropaneamido-4-{[2-methoxy-3-(6-methylpyrimidin-4-yl)phenyl]amino}-N-(^2H3)methylpyridazine-3-carboxamide]
CACO2 (A-B) (Caco-2 cells): 460 nm/s

[2H]C([2H])([2H])NC(=O)c1nnc(NC(=O)C2CC2)cc1Nc1cccc(-c2ncns2)c1OC [Example 9, 6-cyclopropaneamido-4-{[2-methoxy-3-(1,2,4-thiadiazol-5-yl)phenyl]amino}-N-(^2H3)methylpyridazine-3-carboxamide]
CACO2 (A-B) (Caco-2 cells): 499 nm/s

[2H]C([2H])([2H])NC(=O)c1nnc(NC(=O)C2CC2)cc1Nc1cccc(-c2cnc(F)cn2)c1OC [Example 10, 6-cyclopropaneamido-4-{[3-(5-fluoropyrazin-2-yl)-2-methoxyphenyl]amino}-N-(^2H3)methylpyridazine-3-carboxamide]
CACO2 (A-B) (Caco-2 cells): 513 nm/s

[2H]C([2H])([2H])NC(=O)c1nnc(NC(=O)C2CC2)cc1Nc1cccc(-c2cnc(C3CC3)cn2)c1OC [Example 11, 6-cyclopropaneamido-4-{[3-(5-cyclopropylpyrazin-2-yl)-2-methoxyphenyl]amino}-N-(^2H3)methylpyridazine-3-carboxamide]
CACO2 (A-B) (Caco-2 cells): 270 nm/s

[2H]C([2H])([2H])NC(=O)c1nnc(NC(=O)C2CC2)cc1Nc1cccc(-c2cnc([N+](=O)[O-])cn2)c1OC [Example 12, 6-cyclopropaneamido-4-{[2-methoxy-3-(5-nitropyrazin-2-yl)phenyl]amino}-N-(^2H3)methylpyridazine-3-carboxamide]
CACO2 (A-B) (Caco-2 cells): 16 nm/s

[2H]C([2H])([2H])NC(=O)c1nnc(NC(=O)C2CC2)cc1Nc1cccc(-c2nc(C)ns2)c1OC [Example 13, 6-cyclopropaneamido-4-{[2-methoxy-3-(3-methyl-1,2,4-thiadiazol-5-yl)phenyl]amino}-N-(^2H3)methylpyridazine-3-carboxamide]
CACO2 (A-B) (Caco-2 cells): 211 nm/s

[2H]C([2H])([2H])NC(=O)c1nnc(NC(=O)C2CC2)cc1Nc1cccc(-c2cnsc2)c1OC [Example 36, 6-cyclopropaneamido-4-{[2-methoxy-3-(1,2-thiazol-4-yl)phenyl]amino}-N-(^2H3)methylpyridazine-3-carboxamide]
IC50 [1]: 225 nM
Papp A→B at 2 h, 3 μM (in vitro): 20.3 ×10⁻⁶ cm/s
efflux ratio at 2 h, 3 μM (in vitro): 0.9

[2H]C([2H])([2H])NC(=O)c1nnc(NC(=O)C2CC2)cc1Nc1cc(F)cc(-c2cocn2)c1OC [Example 37, 6-cyclopropaneamido-4-{[5-fluoro-2-methoxy-3-(1,3-oxazol-4-yl)phenyl]amino}-N-(^2H3)methylpyridazine-3-carboxamide]
IC50 [1]: 84 nM
Papp A→B at 2 h, 3 μM (in vitro): 35.4 ×10⁻⁶ cm/s
efflux ratio at 2 h, 3 μM (in vitro): 0.4

[2H]C([2H])([2H])NC(=O)c1nnc(NC(=O)C2CC2)cc1Nc1nccc(-c2cnsc2)c1OC [Example 38, 6-cyclopropaneamido-4-{[3-methoxy-4-(1,2-thiazol-4-yl)pyridin-2-yl]amino}-N-(^2H3)methylpyridazine-3-carboxamide]
IC50 [1]: 381 nM
Papp A→B at 2 h, 3 μM (in vitro): 59.5 ×10⁻⁶ cm/s
efflux ratio at 2 h, 3 μM (in vitro): 0.5

[2H]C([2H])([2H])NC(=O)c1nnc(NC(=O)C2CC2)cc1Nc1nccc(-c2nc(C)ns2)c1OC [Example 39, 6-cyclopropaneamido-4-{[3-methoxy-4-(3-methyl-1,2,4-thiadiazol-5-yl)pyridin-2-yl]amino}-N-(^2H3)methylpyridazine-3-carboxamide]
IC50 [1]: 159 nM
Papp A→B at 2 h, 3 μM (in vitro): 46.3 ×10⁻⁶ cm/s
efflux ratio at 2 h, 3 μM (in vitro): 0.3

[2H]C([2H])([2H])NC(=O)c1nnc(NC(=O)[C@@H]2C[C@H]2C)cc1Nc1nccc(-c2nc(C)ns2)c1OC [Example 40, 4-{[3-methoxy-4-(3-methyl-1,2,4-thiadiazol-5-yl)pyridin-2-yl]amino}-N-(^2H3)methyl-6-[(1R,2R)-2-methylcyclopropaneamido]pyridazine-3-carboxamide]
IC50 [1]: 179 nM
Papp A→B at 2 h, 3 μM (in vitro): 12.6 ×10⁻⁶ cm/s
efflux ratio at 2 h, 3 μM (in vitro): 0.3

[2H]C([2H])([2H])NC(=O)c1nnc(NC(=O)C2CC2)cc1Nc1nccc(-c2ncns2)c1OC [Example 41, 6-cyclopropaneamido-4-{[3-methoxy-4-(1,2,4-thiadiazol-5-yl)pyridin-2-yl]amino}-N-(^2H3)methylpyridazine-3-carboxamide]
IC50 [1]: 175 nM
Papp A→B at 2 h, 3 μM (in vitro): 27.7 ×10⁻⁶ cm/s
efflux ratio at 2 h, 3 μM (in vitro): 0.4

[2H]C([2H])([2H])NC(=O)c1nnc(NC(=O)C2CC2)cc1Nc1nccc(-c2cnn(C(F)F)c2)c1OC [Example 42, 6-cyclopropaneamido-4-({4-[1-(difluoromethyl)-1H-pyrazol-4-yl]-3-methoxypyridin-2-yl}amino)-N-(^2H3)methylpyridazine-3-carboxamide]
IC50 [1]: 193 nM
Papp A→B at 2 h, 3 μM (in vitro): 26.6 ×10⁻⁶ cm/s
efflux ratio at 2 h, 3 μM (in vitro): 0.4

[2H]C([2H])([2H])NC(=O)c1nnc(NC(=O)C2CC2)cc1Nc1cccc(-c2noc(CC)n2)c1OC [Example 43, 6-cyclopropaneamido-4-{[3-(5-ethyl-1,2,4-oxadiazol-3-yl)-2-methoxyphenyl]amino}-N-(^2H3)methylpyridazine-3-carboxamide]
IC50 [1]: 443 nM
Papp A→B at 2 h, 3 μM (in vitro): 24.2 ×10⁻⁶ cm/s
efflux ratio at 2 h, 3 μM (in vitro): 0.8
